Patent publication US9441014B2, “Skin permeating and cell entering (SPACE) peptides and methods of use thereof” (The Regents of the University of California, priority 2010, dated 2016)
Read-outs that look alike come from different tables or passages of the source. Blank lines part the entries; values can stand above or below the compound they belong to. Residues, ends and D or L forms follow the SMILES beside them.

Columns and labels:
porcine skin [1] = assay type: in vitro ADME
Procedure: The ability of the SPACE peptide to carry macromolecular cargos across the SC was tested as follows. Full thickness porcine skin was obtained and prepared as described above. The peptide was first conjugated to the macromolecule as described in greater detail below and then the peptide-macromolecule complex was placed into the donor compartment of the FDC. After 24 hours, the remaining solution in the donor compartment was removed and the FDC was dismantled. The skin sample was retrieved and rinsed with DI water to remove excess peptide complex on the surface of the skin.
To conjugate the peptide to the macromolecule streptavidin, 80 μL of a 1 mg/mL biotinylated peptide solution was incubated with 20 μL of a 2 mg/mL streptavidin-Alexa Fluor 488 conjugate (Invitrogen) solution and incubated at room temperature for 30 minutes. The resulting solution was then placed into the donor compartment of the FDC. Skin samples were harvested after 24 hours and imaged as described above.
The ability of the SPACE peptide to carry quantum dots across the SC was also tested. For the delivery of quantum dots into the skin, 198 μL of a 100 ng/mL biotinylated peptide solution was incubated with 2 μL of QDot 525 streptavidin conjugate (Invitrogen) for 1 hour at room temperature. The 200 μL suspension was then placed into the donor compartment of the FDC. […]

[2] = test system: green fluorescent protein (GFP) in GFP-expressing endothelial cells; assay: GFP knockdown in GFP-expressing endothelial cells; assay type: cell-based
Procedure: GFP-expressing endothelial cells (ATCC) were grown in Dulbecco's Modified Eagle's Medium supplemented with 10% fetal bovine serum. GFP siRNA, 5′-GACGUAAACGGCCACAAGUUC N6-3′ (SEQ ID NO:26) (Dharmacon), was conjugated to fluorescently labeled peptide (containing a free carboxyl group) through EDC chemistry.
A 10 mM peptide solution was incubated with a 10 mM solution of N-(3-Dimethylaminopropyl)-N′-ethylcarbodiimide hydrochloride (EDAC, Sigma) and a 9.5 mM solution of N-Hydroxysulfosuccinimide sodium salt (NHS, Sigma) in equal parts in MES buffer (pH 5.5) for 15 minutes. The amine modified siRNA was then added to the mixture to conjugate the peptide to siRNA and allowed to mix overnight.
The peptide-siRNA complex was added to the appropriate cell culture media to obtain a final concentration of 1 μM siRNA. The media along with peptide-siRNA was then added to the cells and allowed to incubate for 48 hours. Cells were imaged using confocal microscopy and image analysis was performed using ImageJ to determine the overall fluorescence intensity for each cell.

human skin = assay: Peptide penetration in human skin (confocal microscopy); assay type: in vitro ADME
Procedure: The ability of the SPACE peptide to penetrate human skin when removed from phage and conjugated to an exemplary small molecule in the form of a fluorescent tag was tested as follows. Full thickness human skin was obtained from the National Disease Research Interchange. […] Fluorescently labeled peptides, 200 μL of a 1 mg/mL solution, were placed in the donor compartment of the FDC. After 24 hours, the remaining solution in the donor compartment was removed and the FDC was dismantled. The skin sample was retrieved and rinsed with DI water to remove excess peptide or peptide complex on the surface of the skin.

mouse skin = assay: Peptide penetration into mouse skin in-vivo
Procedure: The ability of the SPACE peptide to penetrate mouse skin in-vivo was tested as follows. 200 μl of fluorescently labeled peptide (1 mg/ml) was applied on the skin of a mouse. Penetration was assessed at various time points by harvesting the skin, sectioning it and observing under a microscope.

porcine skin [3] = assay: Peptide penetration into porcine skin (confocal microscopy); assay type: in vitro ADME; details: 200 μL of 1 mg/mL, 24 hours
Procedure: The ability of the SPACE peptide to penetrate porcine skin when removed from phage was tested as follows. Full thickness porcine skin was obtained and prepared as described above. Fluorescently labeled peptides, 200 μL of a 1 mg/mL solution, were placed in the donor compartment of the FDC. After 24 hours, the remaining solution in the donor compartment was removed and the FDC was dismantled. The skin sample was retrieved and rinsed with DI water to remove excess peptide or peptide complex on the surface of the skin.

porcine skin [4] = assay: Inulin permeability of porcine skin after co-incubation with peptide; assay type: in vitro ADME
human keratinocytes = assay: MTT assay on keratinocyte cultures; assay type: cell-based; details: 0.1-1.0 mg/mL
Procedure: (a) Peptide internalization (percent of control) for control peptide and SPACE peptide at 4° C. and with the endocytosis inhibitors deoxy-D-glucose, chlorpromazine, nystatin, and EIPA in human keratinocytes. (b) Cell proliferation of human keratinocytes in the presence of control peptide (open bars) or SPACE peptide (closed bars) at 0.1 mg/mL and 1.0 mg/mL. Error cars indicate SD (N=4).

Compound: Streptavidin not conjugated to SPACE peptide: streptavidin-Alexa Fluor 488 conjugate (Invitrogen) alone
penetration of Alexa Fluor 488 streptavidin into porcine skin (porcine skin [1]): minimal penetration into epidermis

Compound: 5′-GACGUAAACGGCCACAAGUUC N6-3′ (GACGUAAACGGCCACAAGUUC; siRNA; 3' N6 group, conjugated to fluorescently labeled peptide by EDC chemistry, further chemistry not given here) [siRNA alone, GFP siRNA (Dharmacon)]
knockdown of GFP ([2]; 1 μM siRNA, 48 hours): no significant knockdown | knockdown of GFP when complexed with Lipofectamine ([2]; complexed with Lipofectamine, compared to no siRNA treatment): knockdown was significant

penetration/localization in human skin observed from the top (human skin; top view looking down on SC, 24 hours): no significant penetration | penetration into mouse skin in vivo (mouse skin; 200 μl of 1 mg/ml topical): lack of skin penetration in vivo | penetration of fluorescently labeled peptide into porcine skin (porcine skin [3]): No significant penetration
Compound: C[C@H](N)C(=O)N[C@H]1CSSC[C@@H](C(=O)NCC(=O)O)NC(=O)[C@H](CO)NC(=O)[C@H](CCC(N)=O)NC(=O)[C@H]([C@@H](C)O)NC(=O)[C@H](CCC(N)=O)NC(=O)CNC(=O)[C@H](Cc2c[nH]cn2)NC(=O)[C@H]([C@@H](C)O)NC1=O [control peptide] (HELM PEPTIDE1{A.C.T.H.G.Q.T.Q.S.C.G}$PEPTIDE1,PEPTIDE1,2:R3-10:R3$$$V2.0; N-terminus and C-terminus assumed)

penetration into mouse skin in vivo after 30 minutes (mouse skin; mouse, in vivo): resulted in penetration | effect on inulin permeability (porcine skin [4]): only a modest increase
Compound: C[C@H](N)C(=O)N[C@H]1CSSC[C@@H](C(=O)NCC(=O)O)NC(=O)[C@H](CCC(N)=O)NC(=O)[C@H](Cc2c[nH]cn2)NC(=O)[C@H](CCC(N)=O)NC(=O)[C@H]([C@@H](C)O)NC(=O)[C@H](CO)NC(=O)CNC(=O)[C@H]([C@@H](C)O)NC1=O [SPACE peptide] (HELM PEPTIDE1{A.C.T.G.S.T.Q.H.Q.C.G}$PEPTIDE1,PEPTIDE1,2:R3-10:R3$$$V2.0; N-terminus and C-terminus assumed)
penetration/localization in human skin observed from the top (human skin): high localization of the SPACE peptide within the corneocytes | penetration into mouse skin in vivo after two hours (mouse skin; mouse, in vivo): significant penetration into the skin and localization in the deep dermis | toxicity to cells (MTT) (human keratinocytes): not toxic
